Reference: US20090221610A1, “Compositions and Methods for Treating Cognitive Disorders” (Yale University, priority 2006, published 2009)
“Also recorded” adds a separate entry of the source.

Assays:
PFC neurons = experiment: Single neuron recording and iontophoresis in monkeys performing a spatial WM (ODR) task; format: in vivo, rhesus monkeys; conditions: for Decreased: percent of neurons, spatial delay-related firing / Un-changed: number of neurons, spatial delay-related firing / Un-changed: percent of neurons, spatial delay-related firing / Decreased: number of neurons, spatial delay-related firing / Increased: percent of neurons, spatial delay-related firing / Increased: number of neurons, spatial delay-related firing / Increased: number of neurons, spatial delay-related firing of PFC neurons: iontophoresis; for Increased: number of neurons, spatial delay-related firing: no dose in table (text: Sp-cAMPS 10 nA, Rp-cAMPS 40-50 nA); for Increased: number of neurons, spatial delay-related firing of PFC neurons: low dose 5-15 nA (text: ZD7288 10 nA); for Reversal of the enhancing effects of guanfacine on delay-related activity: co-iontophoresis with guanfacine (yohimbine 15 nA; Sp-cAMPS 10 nA); for Reversal: number of neurons / Reversal: percent of neurons / No Reversal: number of neurons / No Reversal: percent of neurons: co-iontophoresis
Method: Studies were performed on 4 adult male rhesus monkeys trained on the spatial ODR task (FIG. 3). Iontophoretic electrodes, neuronal recording and drug delivery were as described in (Wang et al., 2004) and also are provided in the Supplemental Material. Guanfacine, yohimbine, ZD7288(Tocris, Ellisville, Mo.) and etazolate (Sigma, St. Louis, Mo.) were dissolved at 0.01M in triple-distilled water (adjusted with HCl to pH 3.5-4.0). Sp-cAMP and Rp-cAMP (Sigma) were dissolved at 0.01M in triple-distilled water (adjusted with NaOH to pH 9). Two-way ANOVA was used to examine the spatial tuned task-related activity with regard to: (1) different periods of the task (cue, delay, response vs. fixation) and (2) different cue locations. One-way ANOVAs were employed to assess the effect of the drug application on cells displaying delay-related activity. Monkeys performed an oculomotor spatial delayed response (ODR) task, illustrated in FIG. 3A. The ODR task requires the monkey to make a memory-guided […] to a visuo-spatial target. Stimulus position was randomized over trials to ensure use of WM. Neurons were recorded from area 46 of the dorsolateral PFC (FIG. 3B) as the monkey performed the task. […] In the present study, 128 neurons with delay-related mnemonic activity were isolated and subjected to iontophoretic application of pharmacological agents See Table 1, below summarizing the effects of drugs (Table 1) and their reversal (Table 2) on PFC neuronal response.

rat prefrontal cortex [1] = experiment: Spatial delayed alternation task in a T maze after intra-PFC infusion; format: in vivo
rat prefrontal cortex [2] = experiment: as above; format: in vivo; remark: listed apart in the source
Method: Rats (n=5) were tested on the spatial delayed alternation task in a T maze, a classical test of prefrontal cortical function in rodents (Larsen and Divac, Physiolog Psychol, 6:15-17, 1978). Rats were trained on the task, and then implanted with cannula aimed at the prelimbic prefrontal cortex as described in (Ramos, et al., Neuron, 40:835-845, 2003). Following recovery from surgery, rats were infused with saline (0.5 μl), the Ih channel blocker ZD7288 (0.0001 μg/0.5 μl), the cAMP analog […]), or a combination of ZD7288 (0.0001 μ[…] (0.21 nmol). There was at least one week washout between drug treatments, and a within subjects comparison was performed (2 way analysis of variance with repeated measures with user defined contrasts). […] Male Sprague Dawley rats (240-260 g; Taconic, Germantown, N.Y.) were trained on the delayed alternation task as described in Ramos et al., 2003. Guide cannula were implanted dorsal in prelimbic PFC (AP: +3.2 mm; ML: ±0.75 mm; DV: -4.2 mm). For infusions, needles reached to 4.5 mm DV; infused at 0.25 μL/min for 2 min. Drug or vehicle was administered in a counterbalanced order with at least 1 week between infusions. […] The experimenter was blind to treatment.

ferret PFC slices = experiment: In vitro extracellular multiple unit and intracellular recording from PFC slices; format: cell-based; conditions: bath application 20-50 micromolar
Method: Methods for extracellular multiple unit and intracellular recording in ferret PFC slices have been detailed elsewhere (Shu et al., 2003). Slices (0.4 mm) from 2-4 month old ferret PFC were maintained in either an interface or submerged chamber (35-36° C.) in a slice solution containing (in mM): NaCl, 126; KCl, 3.1; MgSO4, 1; NaHPO4, 1.25; CaCl2, 1; NaHCO3, 26; dextrose, 10, and aerated with 95% O2, 5% CO2 to a final pH of 7.4. Simultaneous extracellular multiple unit and intracellular recordings were performed in layer 5 with the electrodes approximately […] of one another. Intracellular micropipettes contained 2 M potassium acetate, while whole cell recording pipettes contained KGluconate 140, KCl 3, MgCl2 2, Na2ATP 2, HEPES 10, and EGTA 0.2. The cellular and network consequences of modulation of HCN channels was examined with intracellular and whole cell recordings from layer 5 pyramidal cells simultaneously with extracellular multiple unit recordings in the ferret PFC in vitro (n=55, see FIG. 6G). Under normal conditions, these slices generate Up and Down states, consisting of repeating periods of recurrent network activity (Shu et al., 2003).

[3] = no dose in table (yohimbine 15 nA, Sp-cAMPS 10 nA, etazolate 25 nA)
[4] = iontophoresis 10 nA, example neuron

Compound | Decreased: percent of neurons, spatial delay-related firing (PFC neurons; no dose in table) | Un-changed: number of neurons, spatial delay-related firing (PFC neurons; no dose in table) | Un-changed: percent of neurons, spatial delay-related firing (PFC neurons; no dose in table) | Decreased: number of neurons, spatial delay-related firing (PFC neurons; [3]) | Increased: percent of neurons, spatial delay-related firing (PFC neurons; no dose in table) | Increased: number of neurons, spatial delay-related firing (PFC neurons) | Effect on delay-related firing for the preferred direction (PFC neurons; [4]) | Increased: percent of neurons, spatial delay-related firing (PFC neurons; 5-15 nA) | Un-changed: number of neurons, spatial delay-related firing (PFC neurons; 5-15 nA) | Un-changed: percent of neurons, spatial delay-related firing (PFC neurons; 5-15 nA) | Decreased: percent of neurons, spatial delay-related firing (PFC neurons; 20-50 nA) | Decreased: number of neurons, spatial delay-related firing (PFC neurons; high dose 20-50 nA) | Increased: number of neurons, spatial delay-related firing of PFC neurons (PFC neurons) | Reversal of the enhancing effects of guanfacine on delay-related activity (PFC neurons) | Reversal: number of neurons (PFC neurons; reversal of guanfacine) | Reversal: percent of neurons (PFC neurons; reversal of guanfacine) | further results
CCOC(=O)c1cnc2c(cnn2CC)c1NN=C(C)C [Etazolate] | (83%) | 2 | 17% | 10 | – | – | – | – | – | – | – | – | – | – | – | – | –
Nc1ncnc2c1ncn2[C@@H]1O[C@@H]2COP(O)(=S)O[C@H]2[C@H]1O (stereo partly drawn) [Rp-cAMP] | – | 4 | 33% | – | (67%) | 8 | – | – | – | – | – | – | – | – | – | – | Effect on delay-related firing for the preferred direction (PFC neurons; iontophoresis 40-50 nA): specifically increased; Increased: number of neurons, spatial delay-related firing (PFC neurons; listed as Rp-cAMPS): 8
NC(N)=NC(=O)Cc1c(Cl)cccc1Cl [Guanfacine, N-(diaminomethylidene)-2-(2,6-dichlorophenyl)acetamide] | – | – | – | – | – | – | substantially increased; also recorded: significantly increased | (80%) | 7 | 20% | (100%) | 9 | 28 | – | – | – | Effect on delay-related firing (PFC neurons; iontophoresis 50 nA, higher dose): did not have enhancing effects; Spatial working memory performance (percent correct, delayed alternation) (rat prefrontal cortex [1]; aged rats (n=9), prefrontal infusion 0.0001 μg): significantly different than saline
COC(=O)[C@@H]1[C@H]2C[C@H]3c4[nH]c5ccccc5c4CCN3C[C@@H]2CC[C@@H]1O [Yohimbine] | (100%) | – | – | 15 | – | – | – | – | – | – | – | – | – | reversed | 6 | (100%) | Effect on delay-related activity for the preferred direction (PFC neurons; iontophoresis 15 nA): dramatically suppressed
CCN(c1ccccc1)c1cc(NC)[n+](C)c(C)n1.[Cl-] [ZD7288] | – | – | – | – | – | – | further enhanced | (70%) | 8 | 30% | (100%) | 10 | 19 | – | – | – | Reversal of the reduction in delay-related firing induced by etazolate (PFC neurons; co-iontophoresis with etazolate): fully reversed; Reversal of the yohimbine suppression of delay-related activity (PFC neurons; co-iontophoresis with yohimbine (15 nA)): significantly reversed; No Reversal: number of neurons (PFC neurons; reversal of etazolate): 2; No Reversal: percent of neurons (PFC neurons; reversal of etazolate): 25%; Reversal: number of neurons (PFC neurons; reversal of etazolate): 6; Reversal: percent of neurons (PFC neurons; reversal of etazolate): (75%); No Reversal: number of neurons (PFC neurons; reversal of yohimbine): 2; No Reversal: percent of neurons (PFC neurons; reversal of yohimbine): 31%; Reversal: number of neurons (PFC neurons; reversal of yohimbine): 7; Reversal: percent of neurons (PFC neurons; reversal of yohimbine): (71%); Reversal: number of neurons (PFC neurons; reversal of yohimbine, listed as ZD 7288): 5; Effect on delay-related firing for the preferred direction (PFC neurons; iontophoresis 5 nA, example neuron): significantly increased; Effect on delay-related firing (PFC neurons; iontophoresis 40 nA, highest concentration): decreased rather than increased firing; Spatial working memory performance (percent correct, delayed alternation) compared to saline (rat prefrontal cortex [2]; intra-PFC infusion 0.0001 μg/0.5 μl, n=5): significantly improved; Number of action potentials generated by a depolarizing current pulse (ferret PFC slices): increase; Up-state action potential discharge (ferret PFC slices; from 1.8±1.7 Hz, n=9): 9.2±4.9 Hz; Apparent input resistance (ferret PFC slices; from 18.6±7.5, n=10): 36±10.8 Mohms; Duration of the recurrent network activity of the Up state (ferret PFC slices; from an average of 0.84 (±0.25) before): 4.1 (±1.3) sec; Increase in duration of the recurrent network activity of the Up state (ferret PFC slices; n=10): ~500%; Membrane potential of layer 5 pyramidal neurons (ferret PFC slices; n=12): progressive hyperpolarization
Nc1ncnc2c1ncn2[C@@H]1O[C@@H]2COP(O)(=S)O[C@H]2[C@H]1O (stereo partly drawn) [Sp-cAMP] | (48%) | 5 | 19% | 13 | (33%) | 9 | significantly decreased | – | – | – | – | – | – | significantly reversed | 6 | (67%) | Reversal: number of neurons (PFC neurons; reversal of Rp-cAMP): 6; Reversal: percent of neurons (PFC neurons; reversal of Rp-cAMP): (100%); No Reversal: number of neurons (PFC neurons; reversal of guanfacine): 3; No Reversal: percent of neurons (PFC neurons; reversal of guanfacine): 33%; Increased: number of neurons, spatial delay-related firing (PFC neurons; listed as Sp-cAMPS): 9; Un-changed: number of neurons, spatial delay-related firing (PFC neurons; no dose in table, listed as Sp-cAMPS): 5; Reversal of the enhancing effect of Rp-cAMPS on delay-related firing (PFC neurons; subsequent co-iontophoresis with Rp-cAMPS): reversed; Effect of co-infusion on the guanfacine effects on working memory (rat prefrontal cortex [1]; aged rats, co-infusion with guanfacine): reversed; Effect of co-infusion on the ZD7288 improvement of working memory (rat prefrontal cortex [2]; co-infusion 0.21 nmol with ZD7288 0.0001 μg, listed as Sp-cAMPS): significantly reversed; also recorded: blocked; also recorded: significantly reduced; Spatial working memory performance compared to saline (rat prefrontal cortex [2]; intra-PFC infusion 0.21 nmol/0.5 μl alone): no effect on its own
